Measurements from the NIST ThermoML archive (doi:10.1016/j.jct.2016.10.031).
Numbers after ± are expanded uncertainties.

Conditions: for molar entropy: 101.33 kPa, Small (less than 1 g) adiabatic calorimetry

CC(C)(C)c1ccc(Oc2ccc([N+](=O)[O-])cc2)cc1 [1-(tert-butyl)-4-(4-nitrophenoxy)benzene]
Conditions	Glass transition temperature [°C]	Triple point temperature [K]	molar entropy [J/K/mol]
5 K, Crystal	–	–	0.4639 ± 0.083
10 K, Crystal	–	–	3.11 ± 0.51
15 K, Crystal	–	–	7.882 ± 0.76
20 K, Crystal	–	–	14.05 ± 1.5
25 K, Crystal	–	–	21.04 ± 0.83
30 K, Crystal	–	–	28.52 ± 1
35 K, Crystal	–	–	36.25 ± 1.2
40 K, Crystal	–	–	44.07 ± 1.7
45 K, Crystal	–	–	51.97 ± 1.6
50 K, Crystal	–	–	59.86 ± 1.8
60 K, Crystal	–	–	75.08 ± 2.3
70 K, Crystal	–	–	89.8 ± 2.8
80 K, Crystal	–	–	104.1 ± 3.3
90 K, Crystal	–	–	117.98 ± 1.9
100 K, Crystal	–	–	131.7 ± 2.2
110 K, Crystal	–	–	145.09 ± 2.4
120 K, Crystal	–	–	158.31 ± 2.4
130 K, Crystal	–	–	171.36 ± 2.7
140 K, Crystal	–	–	184.17 ± 2.9
150 K, Crystal	–	–	196.89 ± 3.2
160 K, Crystal	–	–	209.52 ± 3.4
170 K, Crystal	–	–	222 ± 3.4
180 K, Crystal	–	–	234.38 ± 3.7
190 K, Crystal	–	–	246.69 ± 3.9
200 K, Crystal	–	–	259 ± 4
210 K, Crystal	–	–	271.13 ± 4.2
220 K, Crystal	–	–	283.27 ± 4.5
230 K, Crystal	–	–	295.33 ± 4.7
240 K, Crystal	–	–	307.47 ± 5
250 K, Crystal	–	–	319.44 ± 5
260 K, Crystal	–	–	331.5 ± 5.2
270 K, Crystal	–	–	343.55 ± 5.2
280 K, Crystal	–	–	355.53 ± 5.5
290 K, Crystal	–	–	367.58 ± 5.7
298.15 K, Crystal	–	–	377.39 ± 5.8
300 K, Crystal	–	–	379.64 ± 6
310 K, Crystal	–	–	391.78 ± 6.2
320 K, Crystal	–	–	403.92 ± 6.3
330 K, Crystal	–	–	416.14 ± 6.6
334.8 K, Crystal	–	–	422.04 ± 6.6
334.8 K, Liquid	–	–	482.07 ± 7.3
340 K, Liquid	–	–	488.97 ± 7.6
350 K, Liquid	–	–	502.03 ± 7.8
360 K, Liquid	–	–	514.91 ± 8.1
370 K, Liquid	–	–	527.55 ± 8.3
Crystal, Adiabatic calorimetry	–	334.8 ± 0.08	–
Glass, Adiabatic calorimetry	-39.3 ± 0.2	–	–
